Values of other authors as cited in PMC6404779 (Nature medicine, 2018).

Assays:
BRAF V600E monomer = settings: cited from earlier work
first site of RAF dimers = settings: cited from earlier work
[1] = system: second site of RAF dimers; settings: read-out: IC50 of binding to the second site of RAF dimers; cited from earlier work

## COC(=O)N[C@@H](C)CNc1nccc(-c2cn(C(C)C)nc2-c2cc(Cl)cc(NS(C)(=O)=O)c2F)n1 [encorafenib]
BRAF V600E monomer
  off-rate from BRAF V600E monomers: > 24 h
BRAF V600E monomer; read-out: IC50 of binding to the BRAF V600E monomer
  IC50: 14 nM
First site of RAF dimers; cells pretreated 1 hour, washed out
  time the drug remains bound to the other site after washout: up to 24 hours
First site of RAF dimers; read-out: IC50 of binding to first site of RAF dimers
  IC50: 14 nM
[1]
  IC50: 287 nM
